Test results published in patent US4016176A, “Esters of 4-hydroxy-2,9-dioxatricyclo[4.3.1.0^3,7 ] decanes and processes for their production” (Kali-Chemie Pharma GmbH, priority 1973, dated 1977).
Like-named read-outs stand apart in the source and are kept apart here.

Tests used:
[1] = system: mouse; experiment: ataxia in mice; type: in vivo; settings: for C - ataxia: dose required to produce ataxia in a mouse / minimal effective dose: Table 3; for minimal effective dose: Mus musculus, read-out: C - ataxia: dose required to produce ataxia in a mouse, mouse
Excerpt: (§1) In the Table 3 which follows are listed results of tests pertaining to the effectiveness of various compounds that are disclosed herein. The results are included in the several columns under letters whose significance is as follows:
C - ataxia: Dose in milligrams per kilogram of body weight required to produce ataxia in a mouse.

[2] = system: mouse; experiment: prolongation of narcosis produced by hexobarbital in mice; type: in vivo; settings: for E - dose which prolongs narcosis produced by hexobarbital in a mouse by a factor of 4: factor of 4, Table 3; for prolongation of narcosis produced by hexobarbital (in words): comparison of epimers
Excerpt: (§2) In the Table 3 which follows are listed results of tests pertaining to the effectiveness of various compounds that are disclosed herein.

[3] = acute toxicity (LD50) in mice; type: in vivo, mouse; settings: mouse, in vivo, mouse
Excerpt: as §1
(§3) A - lethal dose (LD50) to mice in milligrams per kilogram of body weight of the mouse when administered per os.
(§4) B - lethal dose (LD50) to mice in milligrams per kilogram of body weight of the mouse when administered intraperitoneally.
(§5) A. lethal dose (LD50) to mice in milligrams per kilogram body weight of the mouse when administered per os.
(§6) B. lethal dose (LD50) to mice in milligrams per kilogram body weight of the mouse administered intraperitoneally.
(§7) The values specified in Tables 4 and 5 hereinafter refer to milligrams per kilogram of body weight of the mouse.
(§8) Tests performed in accordance with the procedure described by Campbell and Richter in Acta Pharmacol. et Toxicol., vol. […] This is indicated by the results that are reported in Table 5 in which the headings A and F have the same significance as hereinbefore while the values in the column heading L pertain to the dose in milligrams per kilogram of body weight that was required to produce a lowering of the rectal temperature, which are values indicative of the depressant effect of a compound upon the central nervous system.

[4] = system: mice; experiment: narcosis (lateral position) in mice; type: in vivo, mouse; settings: mouse; for ED50: ip, 0.05 h, read-out: D - narcosis (lateral position): dose (ED50) which produces narcosis for 3 minutes in 50% of the mice, intraperitoneal, narcosis for 3 minutes, Table 3; for narcosis (in words): comparison of epimers
Excerpt: as §2

[5] = system: mice; experiment: acute toxicity (LD50) in mice; type: in vivo, mouse; settings: mouse
Excerpt: as §1, §3, §4, §5, §6, §7, §8

[6] = system: mouse; experiment: lowering of the rectal temperature in mice; type: in vivo; settings: for dose required to produce a lowering of the rectal temperature, relative to the 4-hydroxy compound (in words): compared with Compound No. 2090; for minimal effective dose: mouse, Table 5, read-out: L dose required to produce a lowering of the rectal temperature
Excerpt: as §7, §8

[7] = system: white mice; experiment: ptosis test (Campbell and Richter screening); type: in vivo, mouse; settings: mouse; Table 5
Excerpt: (§9) The sedative and hypnotic effectiveness of the compounds of the invention were also ascertained by screening tests with white mice described by Campbell and Richter in Acta Pharmacol. et Toxicol. 25 (1967) page 345. In Table 4 the results of various specific screening tests are listed. These tests were as follows:
as §7, §8

[8] = system: white mice; experiment: balance bar test (Campbell and Richter screening); type: in vivo; settings: mouse; Table 4; read-out: K. balance bar test (ED50)
Excerpt: as §9
K. balance bar test (ED50).
as §7

[9] = ip, intraperitoneal, Table 3, read-out: B - lethal dose (LD50) to mice, intraperitoneally
[10] = po, per os, Table 3, read-out: A - lethal dose (LD50) to mice, per os
[11] = po, per os, Table 5, read-out: A lethal dose (LD50) to mice, per os

Row | Compound | C - ataxia: dose required to produce ataxia in a mouse ([1]; mouse) | E - dose which prolongs narcosis produced by hexobarbital in a mouse by a factor of 4 [2] | LD50 [3, 9] [mg/kg] | LD50 [3, 10] [mg/kg] | ED50 [4] [mg/kg] | dose required to produce a lowering of the rectal temperature, relative to the 4-hydroxy compound (in words) [6] | minimal effective dose [6] [mg/kg] | LD50 [3, 11] [mg/kg] | also measured
1 | C=C1C2OC(OC)C3C1CC(O)C3(C)O2 (stereo not drawn) [Compound No. 981, 4β-hydroxy-8-methoxy-3-methyl-10-methylene-2,9-dioxatricyclo[4.3.1.0^3,7]decane] | 200 milligrams per kilogram of bod | 100 milligrams per kilogram of bod | 600 | 610 |  |  |  |  | 
2 | COC1OC2OC3(C)C(O)CC(C2C)C13 (stereo not drawn) [Compound No. 1246, 4β-hydroxy-3,10-dimethyl-8-methoxy-2,9-dioxatricyclo[4.3.1.0^3,7]decane] | 800 milligrams per kilogram of bod | 68 milligrams per kilogram of bod | 1200 | > 1500 |  |  |  |  | 
3 | COC1OC2OC3(C)C(OC(=O)NC(C)C)CC(C2C)C13 (centres unmarked) [Compound No. 2065] | 12 milligrams per kilogram of bod | 31.6 milligrams per kilogram of bod |  |  | 46.4 |  |  |  | ratio between effective and lethal doses (in words) ([1]; 2065 versus 2057, ataxia): remains constant; increase in effectiveness in producing ataxia ([1]; 2065 versus epimer 2057): ten-fold increase in effectiveness; dose required for producing ataxia ([1]; mouse): 12 milligrams per kilogram of body weight; narcosis (in words) [4]: produces a very strong narcosis; prolongation of narcosis produced by hexobarbital (in words) [2]: prolongation of narcosis produced by hexobarbital; B - lethal dose (LD50) to mice, intraperitoneally ([5]; intraperitoneal, Table 3): 118 milligrams per kilogram of bod; A - lethal dose (LD50) to mice, per os ([5]; per os, Table 3): 156 milligrams per kilogram of bod
4 | C=C1C2OC(OC)C3C1CC(OC(=O)NCC)C3(C)O2 (centres unmarked) [Compound No. 2067] |  | 215 milligrams per kilogram of bod | 390 | 872 |  |  |  |  | minimal effective dose [1]: 50 mg/kg; doses effective in producing ataxia (in words) ([1]; mouse, 2067 versus 2076): identical doses are effective in producing ataxia; narcosis (in words) [4]: does not produce narcosis; prolongation of narcosis produced by hexobarbital (in words) [2]: prolongs narcosis produced by hexobarbital; toxicity of the epimers (in words) ([5]; 2067 versus 2076): substantially the same toxicity
5 | C=C1C2OC(OC)C3C1CC(OC(C)=O)C3(C)O2 (stereo not drawn) [Compound No. 2117, 4α-Acetoxy-8-methoxy-3-methyl-10-methylene-2,9-dioxatricyclo [4.3.1.0^3,7] decane] |  |  |  |  |  | smaller | 50 | 774 | F ptosis test [7]: 100 milligrams per kilogram of bod
6 | C=C1C2OC(OC)C3C1CC(OC(=O)CC)C3(C)O2 (stereo not drawn) [Compound No. 2118, 4α-Propionyloxy-8-methoxy-3-methyl-10-methylene-2,9-dioxatricyclo[4.3.1.0^3,7]decane] |  |  |  |  |  | smaller | 100 | 1140 | F ptosis test [7]: 100 milligrams per kilogram of bod
7 | C=C1C2OC(OC)C3C1CC(OC(=O)CC(C)C)C3(C)O2 (stereo not drawn) [Compound No. 2295, 4α-Isovaleryloxy-8-methoxy-3-methyl-10-methylene-2,9-dioxatricyclo[4.3.1.0^3,7]decane] |  |  |  |  |  | smaller | 100 | > 1470 | 
8 | CCNC(=O)OC1CC2C(C)C3OC(OCC)C2C1(C)O3 (centres unmarked) [compound 2157] |  |  | 527 | 1470 | 100 |  |  |  | 
9 | C=C1C2OC(OCC)C3C1CC(OC(=O)NCC)C3(C)O2 (centres unmarked) [compound 2179] |  |  | 802 | 944 | < 100 |  |  |  | minimal effective dose [1]: < 100 mg/kg
10 | C=C1C2OC(OC)C3C1CC(OC(=O)NC)C3(C)O2 (centres unmarked) [compound 2504] |  |  |  |  |  |  |  |  | ED50 [8]: 200 mg/kg; LD50 ([3]; ip, intraperitoneal, Table 4, read-out: B. lethal dose (LD50) to mice, intraperitoneally): 492 mg/kg; LD50 ([3]; po, per os, Table 4, read-out: A. lethal dose (LD50) to mice, per os): 528 mg/kg
